Assay results as given in patent US7491794B2, “Macrocyclic compounds as inhibitors of viral replication” (Intermune, Inc., priority 2003, dated 2009).
pIC50: −log10 of the molar value.

What follows are compounds tested against T1, NS3-NS4A protease (Hepatitis C virus genotype 1a, UniProt P27958) (assay: NS3-NS4A protease assay (NS3 inhibition assay, RETS1 substrate), Section B). Settings: not given.
T1 construct: Recombinant E. coli or Baculovirus full-length NS3 was diluted to 3.33 μM with assay buffer; made in house; host or cells: E. coli or baculovirus (BV) system
T1 sequence (P27958 1027-1657): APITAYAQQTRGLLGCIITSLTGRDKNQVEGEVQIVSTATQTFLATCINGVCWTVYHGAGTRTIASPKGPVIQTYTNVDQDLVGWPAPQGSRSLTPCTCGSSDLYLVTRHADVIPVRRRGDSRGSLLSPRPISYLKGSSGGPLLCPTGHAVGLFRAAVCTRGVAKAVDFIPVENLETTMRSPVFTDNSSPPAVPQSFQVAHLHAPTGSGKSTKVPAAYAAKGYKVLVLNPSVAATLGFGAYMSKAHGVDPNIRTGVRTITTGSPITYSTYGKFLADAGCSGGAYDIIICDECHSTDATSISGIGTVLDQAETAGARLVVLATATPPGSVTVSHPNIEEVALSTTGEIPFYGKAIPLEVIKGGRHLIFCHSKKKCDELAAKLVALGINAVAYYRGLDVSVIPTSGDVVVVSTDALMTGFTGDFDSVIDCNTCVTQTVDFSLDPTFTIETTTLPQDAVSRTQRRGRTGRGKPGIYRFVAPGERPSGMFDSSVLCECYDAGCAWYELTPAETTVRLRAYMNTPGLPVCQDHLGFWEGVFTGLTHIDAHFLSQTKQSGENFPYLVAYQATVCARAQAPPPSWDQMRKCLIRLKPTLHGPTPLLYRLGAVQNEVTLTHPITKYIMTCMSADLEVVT
Type: biochemical
Protocol: NS3 complex formation with NS4A-2
Recombinant E. coli or Baculovirus full-length NS3 was diluted to 3.33 μM with assay buffer and the material transferred to an eppendorf tube and place in water bath in 4° C. refrigerator. The appropriate amount of NS4A-2 to 8.3 mM in assay buffer was added to equal the volume of NS3 in step 2.1.1 (conversion factor −3.8 mg/272 μL assay buffer). The material was transferred to an eppendorf tube and placed in a water bath in a 4° C. refrigerator.
After equilibration to 4° C., equal volumes of NS3 and NS4A-2 solutions were combined in an eppendorf tube, mixed gently with a manual pipettor, and the mixture incubated for 15 minutes in the 4° C. water bath. Final concentrations in the mixture were 1.67 μM NS3, 4.15 mM NS4A-2 (2485-fold molar excess NS4A-2).
After 15 minutes at 4° C., the NS3/NS4A-2 eppendorf tube was removed and placed in a room temperature water bath for 10 minutes. NS3/NS4A-2 was aliquoted at appropriate volumes and store at −80° C. (E. coli NS3 run at 2 nM in assay, aliquot at 25 μL. BV NS3 run at 3 nM in assay, aliquot at 30 μL.
Step 2.2.5. Sample compounds were dissolved to 10 mM in DMSO then diluted to 2.5 mM (1:4) in DMSO.
Step 2.2.6. The E. coli NS3/NS4A-2 was diluted to 4 nM NS3 (1:417.5 of 1.67 μM stock−18 μL 1.67 μM stock+7497 μL assay buffer).
The BV NS3/NS4A-2 was diluted to 6 nM NS3 (1:278.3 of 1.67 μM stock−24 μL 1.67 μM stock+6655 μL assay buffer).
Step 2.2.7. Using the manual multichannel pipettor, and being careful not to introduce bubbles into the plate, 50 μL assay buffer was added to wells A01-H01 of a black Costar 96-well polypropylene storage plate.
Step 2.2.8. Using the manual multichannel pipettor, and being careful not to introduce bubbles into the plate, 50 μL of diluted NS3/NS4A-2 from step 2.2.6 was added to wells A02-H12 of plate in step 2.2.7.
Step 2.2.9. Using the manual multichannel pipettor, and being careful not to introduce bubbles into the plate, 25 μL of the wells in drug dilution plate in step 2.2.5 were transferred to corresponding wells in assay plate in step 2.2.8. The tips on multichannel pipettor were changed for each row of compounds transferred.
Step 2.2.10. Using the manual multichannel pipettor, and being careful not to introduce bubbles into the plate, the wells from the assay plate in step 2.2.9 were mixed by aspirating and dispensing 35 μL of the 75 μL in each well five times. The tips on multichannel pipettor were changed for each row of wells mixed.
Step 2.2.11. The plate was covered with a polystyrene plate lid, and the plate from step 2.2.10 containing NS3 protease and sample compounds was pre-incubated 10 minutes at room temperature.
While the plate from step 2.2.11 was pre-incubating, the RETS1 substrate was diluted in a 15 mL polypropylene centrifuge tube. The RETS1 substrate was diluted to 8 μM (1:80.75 of 646 μM stock−65 μL 646 μM stock+5184 μL assay buffer).
After the plate in step 2.2.11 was done pre-incubating, and using the manual multichannel, 25 μL of substrate was added to all wells on the plate. The contents of the wells were quickly mixed, as in step 2.2.10, but mixing 65 μL of the 100 μL in the wells.
The plate was read in kinetic mode on the Molecular Devices SpectraMax Gemini XS plate reader. Reader settings: Read time: 30 minutes, Interval: 36 seconds, Reads: 51, Excitation λ: 335 nm, Emission λ: 495 nm, cutoff: 475 nm, Automix: off, Calibrate: once, PMT: high, Reads/well: 6, Vmax pts: 21 or 28/51 depending on length of linearity of reaction.
IC50s were determined using a four parameter curve fit equation, and converted to Ki's using the following Km's:
where Ki=IC50/(1+[S]/Km))

Row | SMILES | pIC50
1 | CC(C)[C@@H](N)C(=O)N[C@H]1CCCCC/C=C\[C@@H]2C[C@@]2(C(=O)O)NC(=O)[C@@H]2C[C@@H](OC(=O)N3CCc4ccccc4C3)CN2C1=O [AR00298990, (1S,4R,6S,14S,18R)-14-(2-Amino-3-methyl-butyrylamino)-18-(3,4-dihydro-1H-isoquinoline-2-carbonyloxy)-2,15-dioxo-3,16-diaza-tricyclo[14.3.0.0^4,6]nonadec-7-ene-4-carboxylic acid] | > 5.00
2 | CC(C)[C@@H](NC(=O)OC(C)(C)C)C(=O)N[C@H]1CCCCC/C=C\[C@@H]2C[C@@]2(C(=O)O)NC(=O)[C@@H]2C[C@@H](OC(=O)N3CCc4ccccc4C3)CN2C1=O [AR00298989, (1S,4R,6S,14S,18R)-14-(2-tert-Butoxycarbonylamino-3-methyl-butyrylamino)-18-(3,4-dihydro-1H-isoquinoline-2-carbonyloxy)-2,15-dioxo-3,16-diaza-tricyclo[14.3.0.0^4,6]nonadec-7-ene-4-carboxylic acid] | > 5.00

Same assay, conditions: read-out: NS3-NS4A IC50

Row | SMILES | pIC50
3 | COc1ccc2c(c1)CCN(C(=O)O[C@@H]1C[C@H]3C(=O)N[C@]4(C(=O)O)C[C@H]4/C=C\CCCCC[C@H](NC(=O)OC(C)(C)C)C(=O)N3C1)C2CN1CCOCC1 (stereo partly drawn) [AR00333276, (1S,4R,6S,14S,18R)-14-tert-Butoxycarbonylamino-18-(6-methoxy-1-morpholin-4-ylmethyl-3,4-dihydro-1H-isoquinoline-2-carbonyloxy)-2,15-dioxo-3,16-diaza-tricyclo[14.3.0.0^4,6]nonadec-7-ene-4-carboxylic acid] | > 5.00
4 | CC(C)(C)OC(=O)N[C@H]1CCCCC/C=C\[C@@H]2C[C@@]2(C(=O)O)NC(=O)[C@@H]2C[C@@H](OC(=O)N3CCc4nc(N)sc4C3)CN2C1=O [AR00304154, (1S,4R,6S,14S,18R)-18-(2-Amino-6,7-dihydro-4H-thiazolo[5,4-c]pyridine-5-carbonyloxy)-14-tert-butoxycarbonylamino-2,15-dioxo-3,16-diaza-tricyclo[14.3.0.0^4,6]nonadec-7-ene-4-carboxylic acid] | > 5.00
5 | CC(C)(C)OC(=O)N[C@H]1CCCCC/C=C\[C@@H]2C[C@@]2(C(=O)O)NC(=O)[C@@H]2C[C@@H](OC(=O)N3CCc4ccc(Cl)cc4C3)CN2C1=O [AR00304062, (1S,4R,6S,14S,18R)-14-tert-Butoxycarbonylamino-18-(7-chloro-3,4-dihydro-1H-isoquinoline-2-carbonyloxy)-2,15-dioxo-3,16-diaza-tricyclo[14.3.0.0^4,6]nonadec-7-ene-4-carboxylic acid] | > 5.00
6 | COc1cc2c(cc1OC)CN(C(=O)O[C@@H]1C[C@H]3C(=O)N[C@]4(C(=O)O)C[C@H]4/C=C\CCCCC[C@H](NC(=O)OC(C)(C)C)C(=O)N3C1)CC2 [AR00226824, (1S,4R,6S,14S,18R)-14-tert-Butoxycarbonylamino-18-(6,7-dimethoxy-3,4-dihydro-1H-isoquinoline-2-carbonyloxy)-2,15-dioxo-3,16-diaza-tricyclo[14.3.0.0^4,6]nonadec-7-ene-4-carboxylic acid] | > 5.00
7 | COc1ccc2c(c1)CCN(C(=O)O[C@@H]1C[C@H]3C(=O)N[C@]4(C(=O)O)C[C@H]4/C=C\CCCCC[C@H](NC(=O)OC(C)(C)C)C(=O)N3C1)C2CN1CCCCC1 (stereo partly drawn) [AR00333248, (1S,4R,6S,14S,18R)-14-tert-Butoxycarbonylamino-18-(6-methoxy-1-piperidin-1-ylmethyl-3,4-dihydro-1H-isoquinoline-2-carbonyloxy)-2,15-dioxo-3,16-diaza-tricyclo[14.3.0.0^4,6]nonadec-7-ene-4-carboxylic acid] | > 5.00
8 | CC(C)(C)OC(=O)N[C@H]1CCCCC/C=C\[C@@H]2C[C@@]2(C(=O)O)NC(=O)[C@@H]2C[C@@H](OC(=O)N3CCc4cc(N)ccc4C3)CN2C1=O [AR00314578, (1S,4R,6S,14S,18R)-18-(6-Amino-3,4-dihydro-1H-isoquinoline-2-carbonyloxy)-14-tert-butoxycarbonylamino-2,15-dioxo-3,16-diaza-tricyclo[14.3.0.0^4,6]nonadec-7-ene-4-carboxylic acid] | > 6.00
9 | CN(C)CC1c2ccccc2CCN1C(=O)O[C@@H]1C[C@H]2C(=O)N[C@]3(C(=O)O)C[C@H]3/C=C\CCCCC[C@H](NC(=O)OC(C)(C)C)C(=O)N2C1 (stereo partly drawn) [AR00333224, (1S,4R,6S,14S,18R)-14-tert-Butoxycarbonylamino-18-(1-dimethylaminomethyl-3,4-dihydro-1H-isoquinoline-2-carbonyloxy)-2,15-dioxo-3,16-diaza-tricyclo[14.3.0.0^4,6]nonadec-7-ene-4-carboxylic acid] | > 5.00
10 | CC(C)(C)OC(=O)N[C@H]1CCCCC/C=C\[C@@H]2C[C@@]2(C(=O)O)NC(=O)[C@@H]2C[C@@H](OC(=O)N3CCc4cccc(C(F)(F)F)c4C3)CN2C1=O [AR00294382, (1S,4R,6S,14S,18R)-14-tert-Butoxycarbonylamino-2,15-dioxo-18-(8-trifluoromethyl-3,4-dihydro-1H-isoquinoline-2-carbonyloxy)-3,16-diaza-tricyclo[14.3.0.0^4,6]nonadec-7-ene-4-carboxylic acid] | > 6.00
11 | CC(C)(C)OC(=O)N[C@H]1CCCCC/C=C\[C@@H]2C[C@@]2(C(=O)O)NC(=O)[C@@H]2C[C@@H](OC(=O)N3CCc4cc(C(F)(F)F)ccc4C3)CN2C1=O [AR00294383, (1S,4R,6S,14S,18R)-14-tert-Butoxycarbonylamino-2,15-dioxo-18-(6-trifluoromethyl-3,4-dihydro-1H-isoquinoline-2-carbonyloxy)-3,16-diaza-tricyclo[14.3.0.0^4,6]nonadec-7-ene-4-carboxylic acid] | > 5.00
12 | CC(C)(C)OC(=O)N[C@H]1CCCCC/C=C\[C@@H]2C[C@@]2(C(=O)O)NC(=O)[C@@H]2C[C@@H](OC(=O)N3CCc4ccccc4C3CN3CCOCC3)CN2C1=O (stereo partly drawn) [AR00333225, (1S,4R,6S,14S,18R)-14-tert-Butoxycarbonylamino-18-(1-morpholin-4-ylmethyl-3,4-dihydro-1H-isoquinoline-2-carbonyloxy)-2,15-dioxo-3,16-diaza-tricyclo[14.3.0.0^4,6]nonadec-7-ene-4-carboxylic acid] | > 5.00
13 | COc1ccccc1C1CCN(C(=O)O[C@@H]2C[C@H]3C(=O)N[C@]4(C(=O)O)C[C@H]4/C=C\CCCCC[C@H](NC(=O)OC(C)(C)C)C(=O)N3C2)CC1 [AR00320576, (1S,4R,6S,14S,18R)-14-tert-Butoxycarbonylamino-18-[4-(2-methoxy-phenyl)-piperidine-1-carbonyloxy]-2,15-dioxo-3,16-diaza-tricyclo[14.3.0.0^4,6]nonadec-7-ene-4-carboxylic acid] | > 5.00
14 | COc1ccc(S(=O)(=O)NC(=O)[C@@]23C[C@H]2/C=C\CCCCC[C@H](NC(=O)OC(C)(C)C)C(=O)N2C[C@H](OC(=O)N4Cc5ccccc5C4)C[C@H]2C(=O)N3)cc1C(=O)O [AR00365425, (1S,4R,6S,14S,18R)-1,3-Dihydro-isoindole-2-carboxylic acid 14-tert-butoxycarbonylamino-4-(3-carboxy-4-methoxy-benzenesulfonylaminocarbonyl)-2,15-dioxo-3,16-diaza-tricyclo[14.3.0.0^4,6]nonadec-7-en-18-yl ester] | > 7.00
15 | CC(C)(C)OC(=O)N[C@H]1CCCCC/C=C\[C@@H]2C[C@@]2(C(=O)O)NC(=O)[C@@H]2C[C@@H](NC(=O)N3CCCc4ccccc43)CN2C1=O [AR00304160, (1S,4R,6S,14S,18R)-14-tert-Butoxycarbonylamino-18-[(3,4-dihydro-2H-quinoline-1-carbonyl)-amino]-2,15-dioxo-3,16-diaza-tricyclo[14.3.0.0^4,6]nonadec-7-ene-4-carboxylic acid] | > 4.30
